Legend:
[1] = biological target: Matrix metalloproteinase-9 (Homo sapiens, UniProt P14780)
Description: The compound was tested for its binding affinity towards 92 kDa gelatinase (Matrix metalloprotease-9)

[2] = biological target: Neutrophil collagenase (Homo sapiens, UniProt P22894)
Description: The compound was tested for its binding affinity towards neutrophil collagenase (Matrix metalloprotease-8)

[3] = biological target: 72 kDa type IV collagenase (Homo sapiens, UniProt P08253)
72 kDa type IV collagenase, sequence (P08253 whole entry): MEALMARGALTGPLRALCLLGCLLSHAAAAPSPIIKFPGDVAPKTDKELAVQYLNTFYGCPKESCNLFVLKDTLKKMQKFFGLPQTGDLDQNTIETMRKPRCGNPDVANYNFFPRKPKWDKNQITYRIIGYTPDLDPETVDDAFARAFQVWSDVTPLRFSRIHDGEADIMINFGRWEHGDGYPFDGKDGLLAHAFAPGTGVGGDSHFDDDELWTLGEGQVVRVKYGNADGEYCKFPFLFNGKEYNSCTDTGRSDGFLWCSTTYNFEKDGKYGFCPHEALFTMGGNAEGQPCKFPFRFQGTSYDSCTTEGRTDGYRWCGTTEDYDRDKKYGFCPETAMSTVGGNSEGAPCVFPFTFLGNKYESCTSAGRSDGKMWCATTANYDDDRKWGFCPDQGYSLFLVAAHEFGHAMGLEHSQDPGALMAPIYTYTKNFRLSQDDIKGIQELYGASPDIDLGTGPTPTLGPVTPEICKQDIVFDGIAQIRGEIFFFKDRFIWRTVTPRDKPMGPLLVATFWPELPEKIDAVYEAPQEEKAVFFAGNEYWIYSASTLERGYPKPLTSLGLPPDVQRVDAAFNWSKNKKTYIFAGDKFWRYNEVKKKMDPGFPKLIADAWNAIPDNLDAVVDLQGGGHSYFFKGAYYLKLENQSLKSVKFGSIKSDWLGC
Description: Binding affinity towards 72 kDa gelatinase (Matrix metalloprotease-2)

Neutrophil collagenase, sequence (P22894 whole entry): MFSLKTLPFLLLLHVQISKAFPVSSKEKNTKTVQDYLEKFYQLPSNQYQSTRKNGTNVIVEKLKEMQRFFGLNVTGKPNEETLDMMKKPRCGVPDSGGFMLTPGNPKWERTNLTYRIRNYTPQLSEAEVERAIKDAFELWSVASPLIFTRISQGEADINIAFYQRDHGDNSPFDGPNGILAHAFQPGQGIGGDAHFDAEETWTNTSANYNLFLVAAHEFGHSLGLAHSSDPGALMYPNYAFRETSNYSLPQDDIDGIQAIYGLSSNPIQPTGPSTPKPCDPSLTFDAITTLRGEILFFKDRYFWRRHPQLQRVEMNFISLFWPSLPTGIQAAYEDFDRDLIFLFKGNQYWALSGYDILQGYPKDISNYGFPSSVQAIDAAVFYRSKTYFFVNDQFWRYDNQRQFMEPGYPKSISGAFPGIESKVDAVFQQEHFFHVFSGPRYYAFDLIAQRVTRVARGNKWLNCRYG
Matrix metalloproteinase-9, sequence (P14780 whole entry): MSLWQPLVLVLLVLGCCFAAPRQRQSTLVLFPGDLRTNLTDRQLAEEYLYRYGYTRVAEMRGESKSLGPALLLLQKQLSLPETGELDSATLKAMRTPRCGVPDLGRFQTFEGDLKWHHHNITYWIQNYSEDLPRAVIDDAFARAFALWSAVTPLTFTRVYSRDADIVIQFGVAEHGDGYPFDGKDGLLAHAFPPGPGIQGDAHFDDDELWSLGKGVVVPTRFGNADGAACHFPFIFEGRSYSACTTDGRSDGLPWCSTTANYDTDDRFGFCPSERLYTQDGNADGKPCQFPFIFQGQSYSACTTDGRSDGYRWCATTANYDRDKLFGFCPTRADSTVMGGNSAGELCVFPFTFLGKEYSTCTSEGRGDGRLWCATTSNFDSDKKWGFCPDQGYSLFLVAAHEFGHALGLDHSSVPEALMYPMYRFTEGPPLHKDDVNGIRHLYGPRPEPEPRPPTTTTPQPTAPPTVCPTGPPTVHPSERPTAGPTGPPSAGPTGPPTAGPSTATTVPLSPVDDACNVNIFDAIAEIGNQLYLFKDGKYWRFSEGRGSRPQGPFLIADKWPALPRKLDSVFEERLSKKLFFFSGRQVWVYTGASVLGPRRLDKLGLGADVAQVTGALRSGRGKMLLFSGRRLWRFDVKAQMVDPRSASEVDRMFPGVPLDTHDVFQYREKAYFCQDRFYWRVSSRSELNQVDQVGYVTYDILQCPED

SMILES	Ki [1]	Ki [2]	Ki [3]
CCCC[C@H](CC(=O)NO)C(=O)N[C@@H](Cc1c[nH]c2ccccc12)C(=O)NC	0.54 nM	0.3 nM	0.57 nM
CC(C)C[C@H](CC(=O)NO)C(=O)N[C@@H](Cc1c[nH]c2ccccc12)C(=O)NC1CC1	1.2 nM	0.34 nM	0.88 nM
CC(C)C[C@H](CC(=O)NO)C(=O)N[C@@H](Cc1c[nH]c2ccccc12)C(=O)NCCCN1CCOCC1	1.9 nM	0.39 nM	0.71 nM
CCCCCO[C@H](CC(=O)NO)C(=O)N[C@@H](Cc1c[nH]c2ccccc12)C(=O)NC	26 nM	7.8 nM	43 nM
CNC(=O)[C@H](Cc1c[nH]c2ccccc12)NC(=O)[C@@H](CC(=O)NO)OC(C)C	18 nM	12 nM	42 nM
CNC(=O)[C@H](Cc1c[nH]c2ccccc12)NC(=O)[C@@H](CC(=O)O)CC(C)C	100 nM	17 nM	170 nM
CNC(=O)[C@H](Cc1cn(C)c2ccccc12)NC(=O)[C@@H](CC(=O)NO)CC(C)C	1.6 nM	0.66 nM	
CC(C)C[C@H](CC(=O)NO)C(=O)N[C@@H](Cc1c[nH]c2ccccc12)C(=O)N1CCCC1	26 nM	17 nM	20 nM
CNC(=O)[C@H](Cc1c[nH]c2ccccc12)NC(=O)C(CC(C)C)C(O)C(=O)NO (single isomer, unassigned)	1.7 nM	0.41 nM	0.89 nM
CNC(=O)[C@H](Cc1c[nH]c2ccccc12)NC(=O)[C@@H](CC(=O)NOC)CC(C)C	7.9 nM	7.7 nM	6.3 nM
CC(C)C[C@H](CC(=O)NO)C(=O)N[C@@H](Cc1c[nH]c2ccccc12)C(=O)N1CCCCC1	13 nM	27 nM	19 nM
CC(C)CC(CC(=O)NO)C(=O)N[C@@H](Cc1c[nH]c2ccccc12)C(=O)NC1CCc2ccccc21 (single isomer, unassigned)	30 nM	24 nM	
CNC(=O)[C@H](Cc1c[nH]c2ccccc12)NC(=O)[C@@H](CC(=O)NOCc1ccccc1)CC(C)C	13 nM	16 nM	11 nM
CC(C)C[C@H](CC(=O)NO)C(=O)N(C)[C@@H](Cc1c[nH]c2ccccc12)C(=O)NCCCN1CCOCC1	69 nM	77 nM	55 nM
CNC(=O)[C@H](Cc1c[nH]c2ccccc12)NC(=O)[C@@H](CC(=O)NOCC(=O)OC)CC(C)C	580 nM	460 nM	71000 nM
CC(C)C[C@H](CC(=O)NO)C(=O)N[C@@H](Cc1c[nH]c2ccccc12)C(=O)NC1CCCC1	3 nM	1.6 nM	2.6 nM
CC(C)C[C@H](CC(=O)NO)C(=O)N[C@@H](Cc1c[nH]c2ccccc12)C(=O)N(C)C	22 nM	8.5 nM	19 nM
CNC(=O)[C@@H](CC(C)C)NC(=O)[C@@H](CC(=O)NO)CC(C)C	2.5 nM	0.65 nM	1.1 nM
CCCCCC[C@H](CC(=O)NO)C(=O)N[C@@H](Cc1c[nH]c2ccccc12)C(=O)NC	0.41 nM	0.24 nM	0.21 nM
CC(C)C[C@H](CC(=O)NO)C(=O)N[C@@H](Cc1c[nH]c2ccccc12)C(=O)N1CCOCC1	8.7 nM	6.9 nM	3.5 nM
CNC(=O)[C@H](Cc1c[nH]c2ccccc12)N(C)C(=O)[C@@H](CC(=O)NO)CC(C)C	42 nM	21 nM	17 nM
CCCCCCCC[C@H](CC(=O)NO)C(=O)N[C@@H](Cc1c[nH]c2ccccc12)C(=O)NC	0.63 nM	1.6 nM	0.66 nM
CC(C)C[C@H](CC(=O)NO)C(=O)N[C@@H](Cc1c[nH]c2ccccc12)C(=O)NC1CCc2ccccc21 (single isomer, unassigned)	100 nM	130 nM	
CC(C)C[C@H](CC(=O)NO)C(=O)N[C@@H](Cc1c[nH]c2ccccc12)C(=O)N[C@@H](C)c1ccccc1	3.7 nM	0.75 nM	0.64 nM
CNC(=O)[C@@H](CC(C)C)NC(=O)C(CC(C)C)C(O)C(=O)NO (single isomer, unassigned)	2.3 nM	0.53 nM	0.47 nM

Results, then the compound that gave them:

Ki [1]	Ki [2]	Ki [3]	SMILES
1.7 nM	0.33 nM	1.9 nM	CC(C)C[C@H](CC(=O)NO)C(=O)N[C@H](Cc1ccncc1)C(=O)NCCc1ccc(O)cc1
1.1 nM	0.1 nM	0.52 nM	CC(C)C[C@H](CC(=O)NO)C(=O)N[C@@H](Cc1c[nH]c2ccccc12)C(=O)NCCc1ccc(O)cc1
0.78 nM	0.11 nM	0.52 nM	CC(C)C[C@H](CC(=O)NO)C(=O)N[C@@H](Cc1c[nH]c2ccccc12)C(=O)NCc1cccnc1
1.1 nM	0.94 nM		CC(C)C[C@H](CC(=O)NO)C(=O)N[C@@H](Cc1c[nH]c2ccccc12)C(=O)NCCNC(=O)OCc1ccccc1
5.3 nM	7.7 nM	18 nM	CC(C)C[C@H](CC(=O)NO)C(=O)N[C@H](Cc1ccc2ccccc2c1)C(=O)NCc1ccccc1
1.5 nM	0.29 nM	0.6 nM	CC(C)C[C@H](CC(=O)NO)C(=O)N[C@@H](Cc1c[nH]c2ccccc12)C(=O)NCc1ccncc1
1.7 nM	0.49 nM	0.92 nM	CC(C)C[C@H](CC(=O)NO)C(=O)N[C@@H](Cc1c[nH]c2ccccc12)C(=O)NCc1ccco1
1.1 nM	0.59 nM	1.3 nM	CC(C)C[C@H](CC(=O)NO)C(=O)N[C@@H](Cc1c[nH]c2ccccc12)C(=O)NCCCn1ccnc1
6.5 nM	13 nM	8.1 nM	CC(C)C[C@H](CC(=O)NO)C(=O)N[C@H](Cc1ccc(-c2ccccc2)cc1)C(=O)NCCc1ccc(O)cc1
4.1 nM	2.4 nM	4 nM	CNC(=O)[C@@H](Cc1ccc(-c2ccccc2)cc1)NC(=O)[C@@H](CC(=O)NO)CC(C)C
0.96 nM			CNC(=O)[C@@H](Cc1ccccc1)NC(=O)[C@@H](CC(=O)NO)CC(C)C
1.7 nM	3.7 nM	6.9 nM	CC(C)C[C@H](CC(=O)NO)C(=O)N[C@@H](Cc1c[nH]c2ccccc12)C(=O)NCc1ccc2c(c1)OCO2
1.5 nM	0.54 nM	1.3 nM	CNC(=O)[C@@H](Cc1cccc2cccnc12)NC(=O)[C@@H](CC(=O)NO)CC(C)C
6.3 nM	13 nM	25 nM	CC(C)C[C@H](CC(=O)NO)C(=O)N[C@H](Cc1ccc(-c2ccccc2)cc1)C(=O)N[C@@H](C)c1ccccc1
2.5 nM	0.7 nM	1.9 nM	CC(C)C[C@H](CC(=O)NO)C(=O)N[C@H](Cc1ccncc1)C(=O)N[C@@H](C)c1ccccc1
0.68 nM	0.43 nM	0.54 nM	CC(C)C[C@H](CC(=O)NO)C(=O)N[C@@H](Cc1c[nH]c2ccccc12)C(=O)NCc1ccccn1
0.83 nM	0.45 nM	0.44 nM	CNC(=O)[C@@H](Cc1csc2ccccc12)NC(=O)[C@@H](CC(=O)NO)CC(C)C
1.3 nM	0.64 nM	0.42 nM	CNC(=O)[C@@H](Cc1cccc2ccccc12)NC(=O)[C@@H](CC(=O)NO)CC(C)C

Ki [1]	Ki [2]	Ki [3]	SMILES
0.9 nM	0.56 nM		CC(C)C[C@H](CC(=O)NO)C(=O)N[C@@H](Cc1c[nH]c2ccccc12)C(=O)NCc1nccs1
2.8 nM	1.7 nM	0.96 nM	CNC(=O)[C@@H](Cc1ccncc1)NC(=O)[C@@H](CC(=O)NO)CC(C)C
1.5 nM	0.96 nM		CC(C)C[C@H](CC(=O)NO)C(=O)N[C@H](Cc1ccncc1)C(=O)NCc1ccccc1
6.9 nM	14 nM	13 nM	CC(C)C[C@H](CC(=O)NO)C(=O)N[C@H](Cc1ccc2ccccc2c1)C(=O)N[C@@H](C)c1ccccc1
3.5 nM	4.5 nM	3 nM	CC(C)C[C@H](CC(=O)NO)C(=O)N[C@H](Cc1ccc2ccccc2c1)C(=O)NCCCN1CCOCC1
0.99 nM	1.3 nM	0.7 nM	CNC(=O)[C@@H](Cc1ccc2ccccc2c1)NC(=O)[C@@H](CC(=O)NO)CC(C)C
3 nM	3.6 nM		CC(C)C[C@H](CC(=O)NO)C(=O)N[C@H](Cc1ccc(-c2ccccc2)cc1)C(=O)NCc1ccccc1
1.7 nM	4.5 nM	8.1 nM	CC(C)C[C@H](CC(=O)NO)C(=O)N[C@H](Cc1ccc2ccccc2c1)C(=O)NCCc1ccc(O)cc1
1.4 nM	0.49 nM	0.73 nM	CC(C)C[C@H](CC(=O)NO)C(=O)N[C@@H](Cc1c[nH]c2ccccc12)C(=O)NCCc1ccccn1
5 nM	1.2 nM	2 nM	CC(C)C[C@H](CC(=O)NO)C(=O)N[C@@H](Cc1c[nH]c2ccccc12)C(=O)NCc1ccccc1
0.76 nM	0.35 nM	0.44 nM	CC(C)C[C@H](CC(=O)NO)C(=O)N[C@@H](Cc1c[nH]c2ccccc12)C(=O)NCCO
2.7 nM	0.63 nM		CC(C)C[C@H](CC(=O)NO)C(=O)N[C@H](Cc1cccnc1)C(=O)NCc1ccccc1
7.1 nM	6.5 nM	4.6 nM	CCCCCNC(=O)[C@H](Cc1c[nH]c2ccccc12)NC(=O)[C@@H](CC(=O)NO)CC(C)C
3.6 nM	6.8 nM	6.7 nM	CC(C)C[C@H](CC(=O)NO)C(=O)N[C@H](Cc1ccc(-c2ccccc2)cc1)C(=O)NCCCN1CCOCC1
3 nM	5.2 nM	7.3 nM	CC(C)C[C@H](CC(=O)NO)C(=O)N[C@@H](Cc1c[nH]c2ccccc12)C(=O)NCc1nc2ccccc2[nH]1
0.7 nM	1 nM	1 nM	CNC(=O)[C@@H](Cc1cnc2ccccc2c1)NC(=O)[C@@H](CC(=O)NO)CC(C)C
0.58 nM	0.3 nM	0.59 nM	CC(C)C[C@H](CC(=O)NO)C(=O)N[C@H](Cc1cccc2ccccc12)C(=O)NCCCN1CCOCC1

Reference: ChEMBL document CHEMBL1131112, “Matrix metalloproteinase inhibitors: a structure-activity study” (J Med Chem, 1998)
